Assay results published in patent publication US20050244823A1, “Novel epitopes for celiac disease and autoimmune diseases, methods for detecting those and novel non-antigenic food compounds” (Academisch Ziekenhuis Leiden, priority 2002, published 2005).
Where no end group is shown, it is not given here. [ ]: non-standard residue; d: D form. Gln(vinylogous ester) = glutamine whose side-chain carboxamide is replaced by a vinylogous ester electrophilic trap (CO2Et)

What was measured:
[1] = target: T1, tissue transglutaminase (tTG) (Cavia cutleri, UniProt P08587); settings: earlier publications (van de Wal 1998a; Arentz-Hansen 2000); cited from earlier work
T1 construct: purchased Sigma, Zwijndrecht, NL T-5398
T1 sequence (P08587 2-690 limits assumed): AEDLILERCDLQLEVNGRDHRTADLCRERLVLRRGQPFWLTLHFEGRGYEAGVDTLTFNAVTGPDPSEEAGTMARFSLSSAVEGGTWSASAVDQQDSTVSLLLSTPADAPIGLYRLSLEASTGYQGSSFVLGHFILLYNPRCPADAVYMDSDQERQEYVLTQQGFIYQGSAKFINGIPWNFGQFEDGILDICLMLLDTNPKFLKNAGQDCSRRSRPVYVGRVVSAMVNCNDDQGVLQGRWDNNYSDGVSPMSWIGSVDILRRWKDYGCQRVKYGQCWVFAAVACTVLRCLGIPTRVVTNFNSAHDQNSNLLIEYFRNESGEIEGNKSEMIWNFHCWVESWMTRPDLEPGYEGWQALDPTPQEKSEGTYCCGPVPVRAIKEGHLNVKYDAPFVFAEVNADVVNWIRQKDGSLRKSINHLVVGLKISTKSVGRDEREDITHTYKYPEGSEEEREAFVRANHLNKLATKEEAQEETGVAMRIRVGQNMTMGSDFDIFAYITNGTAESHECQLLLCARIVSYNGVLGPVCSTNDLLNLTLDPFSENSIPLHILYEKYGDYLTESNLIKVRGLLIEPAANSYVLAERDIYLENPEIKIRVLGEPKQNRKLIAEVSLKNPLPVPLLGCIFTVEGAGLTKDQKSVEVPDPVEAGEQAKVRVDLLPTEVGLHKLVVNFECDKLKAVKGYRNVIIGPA

[2] = system: gluten specific T cell lines; experiment: T cell proliferation assay with gluten specific T cell lines; format: cell-based, human; settings: T cell line from small intestinal biopsy of celiac disease patient; antigen 1-10 μg/ml; positive = Stimulation Index>3
Experimental: T cell clones T cell lines. Gluten specific T cell lines were generated from small intestinal biopsies of celiac disease patients as described before (van de Wal, 1998a).
T cell proliferation assays. Proliferation assays were performed in duplicate in 150 μl RPMI1640 (Gibco, Breda, NL) supplemented with 10% human serum in 96-well flat-bottomed plates (Falcon) using 10^4 T cells stimulated with 10^5 irradiated PBMCs (3000 RAD) in the presence or absence of antigen (1-10 μg/ml). After 48 hours at 37° C., cultures were pulsed with 0.5 μCi of ^3H-thymidine and harvested 18 hours thereafter as described previously (van de Wal, 1998b).

[3] = system: gluten specific T cell lines; settings: Arentz-Hansen 2000; Anderson 2000; cited from earlier work
[4] = target: T1, tissue transglutaminase (tTG); experiment: tTG treatment of synthetic gluten peptides, deamidation determined by mass spectrometry; format: biochemical; settings: for deamidation of glutamine residues by tTG: peptide 500 μg/ml, tTG 100 μg/ml, 37° C., 4 h minimum, pH 6.5
Experimental: (§1) Peptides and tTG treatment. Peptides were synthesised by standard Fmoc chemistry on a multiple peptide synthesizer (SyroII, MultiSynTech GmbH, Witten, Germany). Integrity of synthetic peptides was checked by rpHPLC and mass spectrometry. Tissue transglutaminase (tTG) treatment was performed by incubating the peptides (500 μg/ml) with the enzyme (100 μg/ml, Sigma, Zwijndrecht, NL; T-5398) at 37° C. for 4 h minimum, in 50 mM triethylamine-acetate pH 6.5, 2 mM CaCl2.
(§2) Mass spectrometry. Electrospray ionisation mass spectrometry was performed on the synthetic gluten peptides before and after tTG treatment, using a Q-TOF hybrid mass spectrometer (Micromass, Manchester, UK). Precursor ions were selected with the quadrupole window set to 3 Da and fragments were collected with high efficiency with the orthogonal time of flight mass spectrometer. The collision gas applied was argon (pressure 4×10^−5 mbar) and the collision voltage approximately 30 V. Deamidation of glutamine residues in synthetic gluten peptides was determined by mass spectrometric analysis as described previously (van de Wal, 1998a). Deamidation of a glutamine residue results in an increase of 1 Da. These conversions were assigned to particular glutamine residues by comparison of the fragmentation spectra of tTG treated and non-treated peptides.

[5] = target: T1, tissue transglutaminase (tTG); experiment: Inhibition of tTG induced deamidation of a substrate gluten peptide, mass spectrometric analysis; format: biochemical
Experimental: as §1, §2

[6] = tTG-treated synthetic gluten peptide, mass spectrometry

Substance: PSGQ208GSFQPSQQ216NPQA
- deamidation of glutamine residues by tTG / tTG substrate [1]: Q208 and Q216 are deamidated by tTG, whereas positions Q212, Q215, and Q219 are not

Substance: QQPYPQQPQQPFPQ [gluten-derived peptide]
- stimulation of gluten specific T cell lines (proliferation) [2]: stimulate gluten specific T cell lines

Substance: QLQPFPQPQLPY
- T cell stimulatory activity in celiac disease patients [3]: immunodominant

Substance: PFSQQQQPV
- deamidation of glutamine residues by tTG [4]: specifically and efficiently deamidated

Substance: PFPQPQQPQQPFPQ [gluten-derived peptide]
- stimulation of gluten specific T cell lines (proliferation) [2]: stimulate gluten specific T cell lines

Substance: 9: gluten peptide FPQHCNYQ[Q]QPQTFPQPF; [Q] = image character, presumably deamidated Q [Peptide 9]
- Rules QP ↓ (share of Q residues following the rule: Q preceding P not deamidated) [4, 6]: 100%
- Rules QXP ↑ (share of Q residues following the rule: P at Q+2 allows deamidation) [4, 6]: 100%
- Rules QXXP ↓ (share of Q residues following the rule: P at Q+3 inhibits deamidation) [4, 6]: 100%

Substance: PFPQTQQPQQPFPQ [gluten-derived peptide]
- stimulation of gluten specific T cell lines (proliferation) [2]: stimulate gluten specific T cell lines

Substance: PSGQ208GSFQPSQQ216N
- deamidation of glutamine residues by tTG [4]: only the Q208 is deamidated

Substance: QQPFPQQPQQPFPQ [gluten-derived peptide]
- stimulation of gluten specific T cell lines (proliferation) [2]: stimulate gluten specific T cell lines

Substance: first-generation inhibitor: biotinylated QPQLPYQ in which the carboxamide of glutamine at position 3 is replaced by a vinylogous ester electrophilic trap (CO2Et, FIG. 3) (QP[Gln(vinylogous ester)]LPYQ; also: biotinylated)
- enzyme activity ([5]; 0.3 molar ratio of enzyme to inhibitor): completely abolished
- inhibition of deamidation of a substrate peptide ([5]; inhibitor mixed with the enzyme in an equimolar ratio): over 50%

Substance: PFPQLQQPQQPFPQ [gluten-derived peptide]
- stimulation of gluten specific T cell lines (proliferation) [2]: stimulate gluten specific T cell lines

Substance: QLPFPQQPQQPFPQ [gluten-derived peptide]
- stimulation of gluten specific T cell lines (proliferation) [2]: stimulate gluten specific T cell lines

Substance: QPQLPYPQ
- deamidation of glutamine residues by tTG / tTG substrate [1]: known to be a tTG substrate

Substance: LQQPQQ6PQFQPQQQF [Peptide 20]
- Rules QP ↓ (share of Q residues following the rule: Q preceding P not deamidated) [4, 6]: 100%
- Rules QXP ↑ (share of Q residues following the rule: P at Q+2 allows deamidation) [4, 6]: 50%
- Rules QXXF ↑ (share of Q residues following the rule: bulky/hydrophobic residue at Q+3 allows deamidation) [4, 6]: 50%^
- Rules QXXP ↓ (share of Q residues following the rule: P at Q+3 inhibits deamidation) [4, 6]: 100%

Substance: QFPQTQQPQQPFPQ [gluten-derived peptide]
- stimulation of gluten specific T cell lines (proliferation) [2]: stimulate gluten specific T cell lines

Substance: PFPQSQQPQQPFPQ [gluten-derived peptide]
- stimulation of gluten specific T cell lines (proliferation) [2]: stimulate gluten specific T cell lines

Substance: PFSQQQQLVL
- deamidation of glutamine residues by tTG [4]: all Q-residues are deamidated
